The record followed here is a melting point compilation (Tetko et al.; mined from patent text by program, amines drawn as free bases though some values may be those of a salt).

`CC(C)NC1=NS(=O)(=O)c2c(Cl)cc(Cl)cc2N1` had a melting point of 291 to 293 °C. On to `NC(=O)C1c2ccccc2SN1CCN1CCN(c2nsc3ccccc23)CC1` (stereo unspecified), for which the melting point was 160 to 163 °C. Compound `CCC(C)COC(=O)Oc1ccc(-c2ccc(O)cc2)cc1` (stereo unspecified) gave a melting point of 129 to 130 °C. For the compound `CC(C)c1ccc(-c2cc(-c3cccc(C(=O)O)c3)cs2)cc1`, the melting point was 208 to 209 °C. `O=C(O)c1ccc(F)c(F)c1Cl` gave a melting point of 167 to 168 °C. The compound `CC(C)(C)OC(=O)NCC/C=C/c1cncnc1` gave a melting point of 54 to 55.5 °C. As for `C=Cc1cc(C)cc(C)c1CC(=O)N(C)C1(C(=O)OC)CCN(OC)CC1`, the melting point was 160 to 162 °C. In turn, `COc1ccc(C(=O)c2ccc(Oc3ccc(Cl)cc3)cn2)cc1OC` came in with a melting point of 145 to 147 °C.

Compound `CSc1nc(CO)c(CO)n1-c1ccccc1` displayed a melting point of 137 to 138 °C. Consider `OC(c1ccccc1)(c1cccc(C(F)(F)F)c1)N1CCCCC1` (stereo unspecified), for which the melting point lay in the range of 97 to 100 °C. `CC(C)N(Cc1nc(-c2ncn3c2CN(C)C(=O)c2c(Cl)cccc2-3)no1)C(C)C` returned a melting point of 58 to 63 °C. `C[C@@H](N1CCN(C(=S)Nc2ccccc2)CC1)[C@](O)(Cn1cncn1)c1ccc(F)cc1F` came in with a melting point of 106 to 108 °C.

For the compound `O=C1CC2(CN1)CC(=O)c1cc(Cl)cc(Cl)c12` (stereo unspecified), the melting point fell in the range of 226 to 228 °C. In turn, `CSC(=NC#N)NCCN1CCC(Nc2nc3cccnc3n2Cc2ccc(F)cc2)CC1` showed a melting point of 172 °C.

Regarding `CCCCCCCCCCCCCCCCOCC(COP(=O)(O)O)OCCCCCCCCCCCCCCCC` (stereo unspecified), the melting point lay within 157 to 159 °C. On to `CCOC(=O)Cc1ccc(NC(=O)C(COc2cccnc2)NS(=O)(=O)c2ccc(Br)cc2)cc1` (racemic), for which the melting point was in the range of 168 to 171 °C. Compound `Cc1ccc(-c2ccc(CO)cc2)cc1` gave a melting point of 128 to 131 °C. As to `COc1cnc(CO)cc1OC`, the melting point fell in the range of 122 to 124 °C.

`NC(=O)c1ccc(F)c(-c2cccc3cc(Cc4cccc(C(F)(F)F)c4)sc23)c1` came in with a melting point of 139 to 140 °C. `OC(c1nccs1)(c1nccs1)C(F)(F)F` had a melting point of 113 to 115 °C. For the compound `O=C(O)C1CCC(=O)N1Cc1cccc(F)c1` (stereo unspecified), the melting point lay within 114 to 116 °C. Compound `CN[C@@H]1CCCC[C@H]1NC` (relative stereo) displayed a melting point of 17 °C.

Regarding `CC1(C)CCc2c(N)c(Cl)cc(C(=O)O)c2O1`, the melting point amounted to 165 °C. In turn, `CCOC(=O)NCC(=O)c1ccc(OCC(=O)OC)cc1` gave a melting point of 128 to 129 °C.

For the compound `COc1cc(-c2cnc3ccccc3n2)cc([N+](=O)[O-])c1O`, the melting point was in the range of 195 to 197 °C. Then `BrCc1ccc2c(c1)CCO2`, with 57 to 60 °C.

With `CC1=CC2=C(N3CN(N4CCCC4)C=C3N=N2)N(c2cc(Cl)ccc2Cl)C1`, the melting point worked out at 157 °C. Take `CCC(=O)NC(=S)NCC1CC2c3cccc4[nH]cc(c34)CC2N(C)C1` (stereo unspecified): the melting point was 225 to 226 °C. The compound `O=Cc1ccc(-c2ccc(O)cc2)c2sccc12` gave a melting point of 202 to 204 °C. Under `COc1ccccc1CN1CCC(=O)C(C2c3ccccc3Oc3ccccc32)C1` (stereo unspecified) stands 96 to 97 °C. `CC1CCC(C(C)C)C(c2ccc3c(c2)C(c2ccccc2)(C(F)(F)F)c2cc(C4CC(C)CCC4C(C)C)ccc2O3)C1` (stereo unspecified): the melting point lay within 150 to 151 °C.

Regarding `O=C1CCCc2ccc([N+](=O)[O-])cc21`, the melting point lay within 104 to 105 °C. `Cn1cc(C2=C(c3c4n(c5ccccc35)CCN(C(=O)CNC(=O)C(F)(F)F)C4)C(=O)NC2=O)c2ccccc21` showed a melting point of 170 to 172 °C. Under `CN(Cc1cccc2c1C(=O)N(C1CCC(=O)NC1=O)C2=O)C(=O)Nc1ccc2ccccc2c1` (stereo unspecified) stands above 260 °C; under `Cc1ccc(-c2ccc3c(c2)C=C(C(=O)Nc2ccc(C(O)c4ccccn4)cc2)C(C)O3)cc1` (stereo unspecified), 202 to 205 °C. Under `C=CCNc1nc(C)c(C(=O)c2ccc(Cl)c([N+](=O)[O-])c2)s1` stands 154 to 156 °C; under `Cc1c(Cl)ccc(S(C)(=O)=O)c1C=NO`, 164 to 168 °C. `N#CCNC(=O)C(Cl)=C(Cl)Cl` displayed a melting point of 58 to 60 °C. The compound `CC(C)(C)OC(=O)Nc1cccc(C(=O)NCCC(=O)OCc2ccccc2)c1` displayed a melting point of 130 to 131 °C. As for `COC(=O)c1ccc(C#Cc2cncc(C3CCCN3C)c2)cc1` (stereo unspecified), the melting point fell in the range of 97 to 98 °C. `CC1=C(CCC(C)(O)C#CCO)C(C)(C)CCC1` (stereo unspecified) returned a melting point of 83 to 84 °C. With `O=c1[nH]c(COc2ccccc2)nc2nccnc12`, the melting point fell in the range of 220 to 221 °C. Compound `CCn1c2ccccc2c2cc(I)ccc21` yielded a melting point of 78 to 80 °C. Compound `CCCNCc1cnc(-c2ncn3c2[C@@H]2CCN2C(=O)c2sccc2-3)o1` showed a melting point of 145 to 147 °C. Under `O=C(O)Cc1cccc(Cn2cc(C3c4ccccc4C=Cc4ccccc43)c(=S)[nH]c2=O)c1` stands 135 to 137 °C; under `CC1(C)OCc2cccc(Cc3c[nH]cn3)c2O1`, 160 to 170 °C. Under `CCC(CC)=NOC(=O)c1cc(-n2c(=O)cc(C(F)(F)F)n(C)c2=O)c(F)cc1Cl` stands 128 to 130 °C; under `CC(C(=O)O)c1ccc(C(F)(F)F)cc1` (stereo unspecified), 56 to 58 °C; under `CNC(=O)C(Cc1ccc(OC)cc1)NC(=O)C(C)(CC(C)C)c1c(S)cccc1Cl` (stereo unspecified), 159 to 163 °C. Compound `CN(C)c1ccc(NC(=O)N(CC(C)(C)C)C[C@H]2CC[C@H](CN(CC(C)(C)C)C(=O)Nc3ccc(N(C)C)cc3)CC2)cc1` came in with a melting point of 178 to 181 °C. Regarding `Cn1nc(-c2cnc(N)nc2-c2ccccc2Br)ccc1=O`, the melting point was above 250 °C. Regarding `CC(CCc1ccc(Cl)cc1)(Cn1ccnc1)Sc1cccc(Cl)c1Cl` (stereo unspecified), the melting point lay in the range of 126 to 128 °C. With `CCOC(=O)Cc1c(C(=O)OCC)sc2c1cc(C(=O)OCC)n2CC(=O)OCC`, the melting point stood at 190 °C. With `N#Cc1ccc(OCC[C@@H](NC(=O)OCc2ccccc2)C(=O)OC(c2ccccc2)c2ccccc2)cc1`, the melting point fell in the range of 125 to 126 °C.

`Fc1ccc(-c2cc(CCOCc3ccccc3)cc(OCCCCCl)c2)cc1` had a melting point of 48 to 49 °C. Under `CCOC(=O)CNC(=O)c1ccc(N)cc1` stands 93 to 94 °C; under `CCC(O)(CC)c1cc(C)c(-c2cc(OCc3ccc(CO)c(CO)c3)ccc2C)c(C)c1`, 128 °C. `Cc1cccc(-c2n[nH]cc2-c2ccc(F)c(-c3ccc(NC(=O)NN4CCOCC4)cc3)c2)n1` came in with a melting point of 131 to 133 °C. Take `COc1c(C)c(=O)oc2cc(-c3ccc(C(C)C)cc3)ccc12`: the melting point worked out at 129 °C. On to `CCOC(=O)c1csc2c1N(O)CCC2`, for which the melting point is 252 to 253 °C. As for `C#CCn1c(=O)c(C(F)(F)F)cc2cc(F)c(-n3c(=O)cc(C(F)(F)F)n(C)c3=O)cc21`, the melting point is 248 to 250 °C. In the case of `Oc1cccc(-c2ccc3nnn(Cc4ccc5ncccc5c4)c3n2)c1`, the melting point fell in the range of 255 to 257 °C. As for `Cc1ccc(CC(CNC(=O)C(C)c2ccc(NS(C)(=O)=O)cc2)COC(=O)C(C)(C)C)cc1C` (stereo unspecified), the melting point lay in the range of 112 to 115 °C. As to `COc1ccc(Cn2cc([N+](=O)[O-])c(C(N)=O)n2)cc1`, the melting point lay within 192 to 193 °C. `COc1ccc(C(=O)N2c3ccccc3C(n3c4ccccc4c4ccccc43)CC2CCCCCN2CCN(c3ccc(F)cc3)CC2)cc1OC` (stereo unspecified) had a melting point of 178 to 179 °C. On to `O=C1c2ccccc2-c2ccc(F)cc21`, for which the melting point lay in the range of 113 to 115 °C. Regarding `Cc1ccc(C(=O)OC2CCCCC2=O)cc1` (stereo unspecified), the melting point lay within 68 to 69 °C. In turn, `CCn1c(C)c(I)c(=O)n(CC)c1=O` registered a melting point of 159 to 162 °C. Then `CNS(=O)(=O)CCS(C)(=O)=O`, with 116 to 117 °C. With `N#Cc1ccc(Oc2ccc(C#N)cc2C#N)cc1`, the melting point fell in the range of 222 to 223 °C. `CN1N(c2ccccc2)C(=O)C(F)(F)C1(C)O` (stereo unspecified): the melting point lay in the range of 132 to 134 °C. Consider `Nc1cc(F)c(OC(F)F)cc1[N+](=O)[O-]`, for which the melting point lay in the range of 95 to 97.5 °C. On to `CC1(C)CCn2c(nc(-c3ccncc3)cc2=O)N1`, for which the melting point lay in the range of 345 to 347 °C. `Cc1ccc(C(O)=C(C#N)C(=O)C(C)(C)C)c([N+](=O)[O-])c1` came in with a melting point of 99 to 102 °C.

On to `Cc1ccc2c(c1)NCc1ccccc1O2`, for which the melting point was in the range of 84 to 86 °C. Then `COc1cc2cc(CO)nc(-c3ccc([N+](=O)[O-])cc3)c2cc1OC`, with 260 to 263 °C; and `COc1c(N)cc(C(=O)O)cc1S(N)(=O)=O`, with 210 °C. Compound `O=C(O)[C@H](Cc1ccc(-c2ccccc2)cc1)NCP(=O)(Oc1ccccc1)Oc1ccccc1` had a melting point of 118 to 119 °C. With `N#Cc1ccc2nc3sc(-c4ccccc4)cc3c(=O)n2c1`, the melting point is 349 to 351 °C.

The compound `CNC(=S)Nc1ccc2c(c1)C(=O)C1(CC1)O2` showed a melting point of 191 to 194 °C. In turn, `CCNC(=O)N(CCO)Cc1cc([N+](=O)[O-])ccc1OC` came in with a melting point of 93 to 94 °C. Compound `N#Cc1ccc(CCCCCC(=O)O)cc1` returned a melting point of 61 to 62 °C. Consider `CC(C)(C)OC(=O)NN(Cc1cc(F)cc(F)c1)C(N)=O`, for which the melting point lay in the range of 129 to 130 °C. As for `Cc1cccc(-c2nc3cccnn3c2-c2ccnc(NC(=O)c3ccc(Cl)cc3)c2)c1`, the melting point lay in the range of 211 to 212 °C. As for `CC(C)Nc1ccc2c(c1)N1CCN=C1S2`, the melting point came to 128 °C. `CC(C)(C)OC(=O)NC1CC(=O)C1` returned a melting point of 75 to 78 °C.

For the compound `CC(C)(C)OC(=O)NCc1ccc(CNC(=O)[C@@H](CCCNC(N)=N[N+](=O)[O-])NC(=O)C(c2ccccc2)c2ccccc2)cc1`, the melting point came to 198 °C.

`C=C1CCC2C3CCC4CC(OC(C)=O)CCC4(C)C3C(=O)CC12C` (stereo unspecified) displayed a melting point of 140 to 141 °C.

The compound `COc1ccc2[nH]c(C)c(/C=C/C(=O)c3ccncc3)c2c1` displayed a melting point of 256 to 259 °C. Then `CCCC1=C(C(=O)OCC)C(c2ccccc2[N+](=O)[O-])c2c[nH]nc2N1` (stereo unspecified), with 218 °C; and `O=C(O)C(=O)c1ccc(OCCSc2ccc3ccccc3c2)cc1`, with 121 to 123 °C.
